The test system of the assay is MMP-2. The assay is described as follows: Western immunoblot of conditioned media from compound 1 and TGF-β1 treated cells. The conditions noted are these: HT1080 and A2058; 2 μM, 24 and 48 hr. The assay is classed as cell-based, human. As for the experimental part: A2058 and HT1080 conditioned media samples were concentrated 10-fold using ultrafiltration units excluding material of less than 10 or 30 kDa in molecular weight. Aliquots of 15 μL were electrophoresed on 4-20% gradient PAGE gels, electrically transferred to membranes and immunoblotted with specific polyclonal antibody to proMMP-2. This antibody, made to the MMP-2/TIMP-2 complex recognizes the latent and activated MMP-2 species and crossreacts with TIMP-2 (21 kDa).
A2058 and HT1080 cells were incubated with compound 1 (2 μM), with or without TGF-β1 (5 ng/mL) for 24 and 48 hours prior to harvest of conditioned media. Aliquots were subjected to gelatin zymography as described in Example 1. Known concentrated conditioned medium from HT1080 cells was used for identification of the gelatinase species (92 kDa, gelatinase B/MMP-9; 72 kDa, gelatinase A/MMP-2 latent form; 65 kDa intermediate and 62 kDa activated forms of MMP-2).
Lane 1 is the control resulting from treatment of the cells with 0.1% DMSO. Lanes 2 and 3 correspond to those cells which are treated with 2 μM compound 1 in the absence of TGF-β1 for 24 and 48 hours, respectively. Lane 4 corresponds to cells which have been treated with TGF-β1 in the absence of compound 1. Lane 5 corresponds to cells which have been treated with TGF-β1 for 48 hours with compound 1 being added to the incubation mixture for the final 24 hours. […]

Structures are written as SMILES.

From patent US5602156A, “Method for inhibiting metalloproteinase expression” (The United States of America as represented by the …, priority 1994, dated 1997) come the findings set out here.

Take `NC(=O)c1nnn(Cc2cc(Cl)c(C(=O)c3ccc(Cl)cc3)c(Cl)c2)c1N` [Compound 1, 5-amino-l-(4-(4-chlorobenzoyl)-3,5-dichlorobenzyl)-1,2,3-triazole-4-carboxamide]: the “inhibition of MMP-2 (immunoblot)” value is reported as “inhibits MMP-2 in a time-dependent manner”.
